Assay results reported in patent US8852876B2, “Label free biosensors and cells” (Corning Incorporated, priority 2008, dated 2014).
*1 amine or outer side, *2 acyl side, *3 side chain or, on linkers, in order; H or OH if unused. Where a SMILES comes first, the peptide text is derived from it. Bridges are numbered along the chain shown (N, C = ends). [ ]: non-standard residue; d: D form. Trp(2-yl) = O=C([C@H](Cc1c([*:3])[nH]c2ccccc12)N[*:1])[*:2]; Leu(4R-OH,5-OH) = C[C@](O)(CO)C[C@H](N)C(=O)O; cisHyp = O=C(O)[C@@H]1C[C@H](O)CN1

What was measured:
CHO cells [1] = experiment: GPCR agonist-induced mass redistribution (optical LID); type: cell-based, Chinese hamster
Source text: These translocations can be located on a surface of an optical LID biosensor as disclosed herein. The particular data shown in FIGS. 52-60 was obtained using an optical waveguide grating sensor system and LID microplates (Nb2O5 plates), manufactured by Corning Incorporated. […] It is known that CHO cells 1008 endogenously express beta adrenergic receptors, alpha2-adrenergic receptors, P2Y receptors, as well as beta-arrestin and GRKs. It is also known that muscarinic receptors are endogenously expressed at very low level in the CHO cells 1008. In this experiment, approximately ˜5×10^4 CHO cells 1008 were placed within each well of a microplate that contained an array of optical LID biosensors 1004. The CHO cells 1008 were then cultured in 150 μl serum medium for 24 hours to ensure that the CHO cells 1008 became adherent to the substrate surface 1010. […] Since muscarinic receptors are endogenously expressed at very low level in CHO cells, oxotremorine M, agonist for muscarinic receptors, served as a control. Each of these agonists was directly applied to a different one of the wells which contained the serum medium. The optical responses were then collected by the optical LID system.

[2] = molecular target: T1, rat muscarinic receptor subtype 1 (Rattus norvegicus, UniProt P08482); experiment: GPCR agonist-induced mass redistribution in M1 CHO cells (optical LID); type: cell-based
T1 construct: expressed in transfected cells; host or cells: CHO (M1 CHO)
T1 sequence (P08482 1-460): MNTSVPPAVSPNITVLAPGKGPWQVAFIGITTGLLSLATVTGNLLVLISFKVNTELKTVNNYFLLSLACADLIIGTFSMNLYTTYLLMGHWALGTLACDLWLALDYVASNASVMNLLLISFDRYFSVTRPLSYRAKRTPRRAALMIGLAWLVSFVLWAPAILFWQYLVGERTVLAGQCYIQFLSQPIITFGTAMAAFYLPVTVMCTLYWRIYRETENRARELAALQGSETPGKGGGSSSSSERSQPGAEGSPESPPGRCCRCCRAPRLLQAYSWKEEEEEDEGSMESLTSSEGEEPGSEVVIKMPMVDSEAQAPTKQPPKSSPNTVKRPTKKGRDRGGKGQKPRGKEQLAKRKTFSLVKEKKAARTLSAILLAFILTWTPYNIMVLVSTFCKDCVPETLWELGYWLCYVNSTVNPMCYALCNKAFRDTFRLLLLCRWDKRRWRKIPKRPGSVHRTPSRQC

[3] = test system: EGF-induced response of quiescent A431 cells; experiment: Effect of compound pretreatment on EGF-induced DMR response; type: cell-based, human; settings: for Effect of pretreatment on 32 nM EGF-induced response: quiescent A431 cells
Method: (§1) Both A431 and CHO-K1 cells were grown in Dulbecco's modified Eagle's medium (DMEM) supplemented with 10% fetal calf serum, 100 μg/ml penicillin, and 100 μg/ml streptomycin. For cell culture, certain numbers of cells (2×10^5 to 1×10^6), either A431 or CHO-K1, were suspended in […] medium were placed in each well of a 96 well Corning Epic Biosensor microplate, and were cultured at 37° C. in air/5% CO2 for certain time until the cell density reached ˜90% and above (unless specified). The resulted cells were termed as “profilerating” cells. The “quiescent” cells were obtained by culturing the profilerating cells of desired confluencies with a medium containing no or little (˜0.1% fetal bovine serum (FBS)) for at least 16 hours.
(§2) During the assays, the cells in 100 μl medium were subject to two 25 μl HBSS buffer containing 20 mM HEPES, pH 7.4, each separated by at least 15 minutes before 50 μl stimulus-containing solution was applied. During all these steps, a parallel angular interrogation system was used to monitor the real time kinetics of cellular responses. For compound effect studies, a modified protocol was used which starts with 50 μl medium, and subject to sequential treatment: 25 μl HBSS buffer twice (each separated by at least 15 minutes), 50 μl compound solution and finally 50 μl stimulus-containing solution.

CHO cells [4] = experiment: Saponin-permeabilized cell assay for cytoskeleton modulators (LID biosensor); type: cell-based, Chinese hamster; settings: saponin 67 ug/ml
Source text: The method involves the use of pore-forming reagents (e.g, saponin) to generate permeabilized cells which permit soluble proteins to diffuse away. It is known that treatment of the cells with many pore-forming reagents leads to permeabilized cells. Since intracellular macromolecules are highly organized within the cytoplasm of mammalian cells through direct binding to cytoskeletal elements, the permeabilized cells still retain most of the biological functions of living cells by sequestration of intracellular machinery through the cytoskeleton super-assembled structure, although the saponin-treated cells undergo the loss of some portions of biomacromolecules. However, upon disruption of microfilaments there is a dramatic reduction of protein synthesis accompanied by release of these translation components from the cells. Also, many other sequestered biomacromolecules are released from these permeabilized cells after disrupting the cytoskeleton structure. These further released materials from the permeabilized cells result in the loss in mass; thus resulting in the changes in effective refractive index of the cell layer on the surface of a LID biosensor which can be detected by LID biosensors. Thus, the changes obtained using optical biosensors can be used as an indicator of modulators that interfere with the cytoskeleton structure. In one embodiment, the present methods can be used to screen modulators that interfere with the cytoskeleton structure using the method 2500 shown in FIG. 25. In accordance with method 2500 one can monitor the mass redistribution due to pore formation of cell surface membranes induced by pore-forming reagents such as saponin in living cells 1008 by: (a) providing an optical LID biosensors 1004 (step 2502); (b) placing cells 1008 in a cell medium onto the said sensor 1004 (step 2504); (c) Optionally applying a buffer solution (step 2506); (d) applying a solution containing a compound into the cell mediums located on the top surfaces 1010 of covered optical LID biosensors 1004 (step 2508); applying a solution containing a pore-forming reagent (step 2510); and (e) interrogating the covered optical LID biosensors 1010 to monitor the time dependent optical responses which indicate mass redistributions within the permeabilized cells 1008 (step 2512). A Pore-forming reagent is a chemical or biological compound or composition that can result in the formation of pores in cell surface membranes when the cells are exposed to the reagent.
The pore-forming regents include detergents such as saponin and filipin, or toxin such as digitonin or streptolysin O. It is well known that treatment of the cells with these reagents can result in the pore formation in cell surface membrane; the resulted permeabilized cells can release a certain amount of intracellular material, mainly soluble proteins. However, there are a great number of bio-materials that still stay with these permeabilized cells due to the sequestration by directly binding or association with the cytoskeleton structure. As a matter of fact, these permeabilized cells retain many of the biological functions of living cells such as protein synthesis.
FIG. 50 presents the dose-dependent responses of CHO cells adherent on the surface of a LID sensor in response to saponin as a function of time. After the addition of saponin at different concentrations, a different response is evident. At low concentration, there is almost no response. […]

[5] = test system: protease activated receptors PAR1 and PAR2; type: cell-based, human; settings: 100 or 200 nM trypsin; modulators 10 μM
Method: (§3) Human epidermoid carcinoma A431 cells (American Type Cell Culture) were grown in Dulbecco's modified Eagle's medium (DMEM) supplemented with 10% fetal bovine serum (FBS), 4.5 g/liter glucose, 2 mM glutamine, and antibiotics. ˜3-7.5×10^4 cells at passage 3 to 5 suspended in 200 μl the DMEM medium containing 10% FBS were placed in each well of a 96 well microplate, and were cultured at 37° C. under air/5% CO2 until ˜95% confluency was reached (˜2-4 days).
(§4) The compound or PAR agonist solutions were made in 1×HBSS in order to match the refractive index between the cell medium and compound solution, thus minimizing the unwanted effect of bulk index change due to the introduction of compound solution which can temporarily overwhelms any DMR signal as it occurs.

[6] = molecular target: T2, protease activated receptors PAR1 and PAR2 (Homo sapiens, UniProt P25116); type: cell-based; settings: 40 unit/ml thrombin; modulators 10 μM
T2 construct: A431 cells which endogenously express PAR1 and PAR2; endogenous in cells; host or cells: A431
T2 sequence (P25116 22-425): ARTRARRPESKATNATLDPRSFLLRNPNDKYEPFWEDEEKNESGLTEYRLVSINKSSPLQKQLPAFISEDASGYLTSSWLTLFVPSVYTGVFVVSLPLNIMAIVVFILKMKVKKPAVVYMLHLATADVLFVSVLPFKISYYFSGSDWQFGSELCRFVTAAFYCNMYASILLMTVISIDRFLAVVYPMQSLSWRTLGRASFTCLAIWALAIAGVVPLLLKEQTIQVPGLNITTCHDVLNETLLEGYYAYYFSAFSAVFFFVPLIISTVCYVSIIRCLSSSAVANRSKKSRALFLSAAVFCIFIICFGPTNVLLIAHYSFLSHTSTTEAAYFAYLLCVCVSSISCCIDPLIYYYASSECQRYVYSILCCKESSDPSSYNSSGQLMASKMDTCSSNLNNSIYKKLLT
Method: as §3, §4

quiescent A431 cells = experiment: GPCR agonist-induced DMR and EGFR transactivation; type: cell-based, human; settings: bradykinin 100 nM, carbachol 10 μM, clonidine 1 μM
Method: as §1, §2

C[N+](C)(C)CC#CCN1CCCC1=O [oxotremorine M]
Agonist-induced optical response (CHO cells [1]; ATP 100 μM, clonidine 10 μM, epinephrine 100 μM, oxotremorine M 10 μM): caused almost no cell response
Ligand-induced response in M1-CHO cells ([2]; 10 μM, compared with CHO cells): significantly larger responses in M1-CHO cells

C[C@@H]1NC(=O)[C@H](C[C@@](C)(O)CO)NC(=O)[C@@H]2Cc3c([nH]c4ccccc34)SC[C@H](NC(=O)[C@@H]([C@H](C)O)NC1=O)C(=O)N1C[C@@H](O)C[C@H]1C(=O)N[C@@H](C)C(=O)N2 [phalloidin] (cyclo(A[dT]C[cisHyp]A[Trp(2-yl)][Leu(4R-OH,5-OH)]); thioether 3-6)
Effect of pretreatment on 32 nM EGF-induced response [3]: hardly any effect on the EGF-induced response
Effect of compound pre-treatment on saponin-induced response (loss of biomaterials) (CHO cells [4]): delay the loss of biomaterials in saponin-treated cells
Effect of pretreatment on trypsin-mediated DMR signal [5]: neither a stabilizing polymeric F-actin agent phalloidin nor a microtubule disrupter nocodazole had significant effect
Effect of pretreatment on thrombin-mediated DMR signal [6]: neither a stabilizing polymeric F-actin agent phalloidin nor a microtubule disrupter nocodazole had significant effect

C[N+](C)(C)CCOC(N)=O [Carbachol, carbachol]
GPCR agonist-induced DMR response curve (quiescent A431 cells): responses with almost identical features as those induced by low concentrations (2-8 nM) of EGF

CC[C@]1(O)C[C@@H]2CN(CCc3c([nH]c4ccccc34)[C@@](C(=O)OC)(c3cc4c(cc3OC)N(C)[C@H]3[C@@](O)(C(=O)OC)[C@H](OC(C)=O)[C@]5(CC)C=CCN6CC[C@]43[C@@H]65)C2)C1 [vinblastine]
Effect of pretreatment on 32 nM EGF-induced response [3]: hardly any effect on the EGF-induced response
Effect of compound pre-treatment on saponin-induced response (loss of biomaterials) (CHO cells [4]): block the saponin-induced loss of biomaterials from the cells

C=C1[C@@H](C)[C@H]2[C@H](Cc3ccccc3)NC(=O)[C@]23OC(=O)/C=C/[C@H](O)CCC[C@@H](C)C/C=C/[C@H]3[C@@H]1O [cytochalasin B]
Effect of pretreatment on 32 nM EGF-induced response [3]: totally abolished the N-DMR signal
Effect of compound pre-treatment on saponin-induced response (loss of biomaterials) (CHO cells [4]): cause increased loss of biomaterials
Effect of pretreatment on trypsin-mediated DMR signal [5]: much less effective in suppressing the responses
Effect of pretreatment on thrombin-mediated DMR signal [6]: much less effective in suppressing the responses

dynamin inhibitory peptide [DIP]
Effect of pre-treatment on EGF-induced P-DMR and N-DMR signals ([3]; starved A431 cells, 8 nM EGF, 30-minute pretreatment, GH 0.5 ng/ml, PD98059 0.1 mM, PP1 1 μM, wortmannin 0.1 μM, DIP 50 μM): totally blocks the N-DMR signal, but slightly increases the P-DMR signal with much slower kinetics
Increase of total P-DMR signal in presence vs absence of compound ([3]; starved A431 cells, EGF, DIP 50 μM): 50%
Effect of pre-incubation on NECA-induced response (CHO cells [1]; DIP 50 μM, 45 minutes, NECA 10 μM, CHO): little effect on NECA-induced response
Effect of pre-incubation on clonidine-induced response (CHO cells [1]; DIP 50 μM, 45 minutes, clonidine 10 μM, CHO): almost totally eliminates the clonidine-induced mass distribution response
Effect of pre-incubation on oxotremorine M-induced response (CHO cells [1]; DIP 50 μM, 45 minutes, oxotremorine M 10 μM, CHO): almost totally eliminates the oxotremorine M-induced mass distribution responses in both cell lines
Effect of compound pre-treatment on saponin-induced response (loss of biomaterials) (CHO cells [4]): show no effect on a saponin-induced response
Effect of pre-incubation on NECA-induced response ([2]; DIP 50 μM, 45 minutes, NECA 10 μM, M1 CHO): little effect on NECA-induced response
Effect of pre-incubation on clonidine-induced response ([2]; DIP 50 μM, 45 minutes, clonidine 10 μM, M1 CHO): almost totally eliminates the clonidine-induced mass distribution response
Effect of pre-incubation on oxotremorine M-induced response ([2]; DIP 50 μM, 45 minutes, oxotremorine M 10 μM, M1 CHO): almost totally eliminates the oxotremorine M-induced mass distribution responses in both cell lines

C[C@H]1CCC/C=C/[C@@H]2C[C@H](O)C[C@H]2[C@H](O)/C=C/C(=O)O1 [brefeldin A]
Effect of compound pre-treatment on saponin-induced response (loss of biomaterials) (CHO cells [4]): show no effect on a saponin-induced response
